Laboratory results reported in the NIST ThermoML archive (doi:10.1016/j.jct.2016.02.016).
± gives the expanded uncertainty stated by the source.

Legend:
[1] = refractive index (Na D-line) (dimensionless); xn = mol fraction of the nth substance listed; conditions: 100 kPa, Liquid, Standard Abbe refractometry
[2] = xn = mol fraction of the nth substance listed; conditions: 293.15 K, 100 kPa, Liquid; for speed of sound: Frequency=3 MHz, Sing-around technique in a fixed-path interferometer; for mass density: Vibrating tube method

CCC(C)=O [butanone] + CN(C)C=O
[1]
Conditions	refractive index
293.15 K, x2 = 0	1.37872 ± 0.0042
293.15 K, x2 = 0.0482	1.3812 ± 0.0042
293.15 K, x2 = 0.1051	1.3841 ± 0.0042
293.15 K, x2 = 0.148	1.38629 ± 0.0042
293.15 K, x2 = 0.1915	1.38843 ± 0.0042
293.15 K, x2 = 0.253	1.39163 ± 0.0042
293.15 K, x2 = 0.3008	1.39408 ± 0.0042
293.15 K, x2 = 0.3386	1.39604 ± 0.0042
293.15 K, x2 = 0.3915	1.39872 ± 0.0042
293.15 K, x2 = 0.4432	1.40144 ± 0.0042
293.15 K, x2 = 0.4887	1.40384 ± 0.0042
293.15 K, x2 = 0.5536	1.40712 ± 0.0042
293.15 K, x2 = 0.6017	1.40972 ± 0.0042
293.15 K, x2 = 0.6519	1.41237 ± 0.0043
293.15 K, x2 = 0.7023	1.41495 ± 0.0043
293.15 K, x2 = 0.7525	1.41752 ± 0.0043
293.15 K, x2 = 0.8002	1.42009 ± 0.0043
293.15 K, x2 = 0.8492	1.42274 ± 0.0043
293.15 K, x2 = 0.9032	1.42553 ± 0.0043
293.15 K, x2 = 0.9477	1.42785 ± 0.0043
298.15 K, x2 = 0	1.37605 ± 0.0041
298.15 K, x2 = 0.0519	1.37886 ± 0.0042
298.15 K, x2 = 0.1048	1.38152 ± 0.0042
298.15 K, x2 = 0.1506	1.38397 ± 0.0042
298.15 K, x2 = 0.1948	1.38631 ± 0.0042
298.15 K, x2 = 0.2482	1.38913 ± 0.0042
298.15 K, x2 = 0.3032	1.39213 ± 0.0042
298.15 K, x2 = 0.3543	1.39479 ± 0.0042
298.15 K, x2 = 0.3962	1.39697 ± 0.0042
298.15 K, x2 = 0.4495	1.39982 ± 0.0042
298.15 K, x2 = 0.4916	1.40199 ± 0.0042
298.15 K, x2 = 0.5536	1.40522 ± 0.0042
298.15 K, x2 = 0.5946	1.40739 ± 0.0042
298.15 K, x2 = 0.6572	1.41063 ± 0.0042
298.15 K, x2 = 0.7034	1.41301 ± 0.0043
298.15 K, x2 = 0.7461	1.41516 ± 0.0043
298.15 K, x2 = 0.7965	1.41779 ± 0.0043
298.15 K, x2 = 0.8488	1.42048 ± 0.0043
298.15 K, x2 = 0.894	1.42276 ± 0.0043
298.15 K, x2 = 0.9427	1.42542 ± 0.0043
303.15 K, x2 = 0	1.37351 ± 0.0041
303.15 K, x2 = 0.0496	1.37623 ± 0.0041
303.15 K, x2 = 0.1068	1.37911 ± 0.0042
303.15 K, x2 = 0.1478	1.38113 ± 0.0042
303.15 K, x2 = 0.1836	1.38314 ± 0.0042
303.15 K, x2 = 0.2521	1.38686 ± 0.0042
303.15 K, x2 = 0.2943	1.38911 ± 0.0042
303.15 K, x2 = 0.3532	1.39202 ± 0.0042
303.15 K, x2 = 0.3938	1.39409 ± 0.0042
303.15 K, x2 = 0.4538	1.39728 ± 0.0042
303.15 K, x2 = 0.4969	1.39967 ± 0.0042
303.15 K, x2 = 0.5486	1.40242 ± 0.0042
303.15 K, x2 = 0.6028	1.40517 ± 0.0042
303.15 K, x2 = 0.6517	1.4078 ± 0.0042
303.15 K, x2 = 0.7023	1.4105 ± 0.0042
303.15 K, x2 = 0.7483	1.41287 ± 0.0043
303.15 K, x2 = 0.7995	1.41553 ± 0.0043
303.15 K, x2 = 0.8514	1.41823 ± 0.0043
303.15 K, x2 = 0.8982	1.42066 ± 0.0043
303.15 K, x2 = 0.946	1.4232 ± 0.0043

[2]
Conditions	mass density [kg/m3]	speed of sound [m/s]
x2 = 0	805.06 ± 1.9	1212.6 ± 1.2
x2 = 0.0482	811.508 ± 2	1224.5 ± 1.3
x2 = 0.1051	819.281 ± 2	1238.6 ± 1.3
x2 = 0.148	825.263 ± 2	1249.6 ± 1.4
x2 = 0.1915	831.169 ± 2	1262.8 ± 1.3
x2 = 0.253	839.789 ± 2	1276.1 ± 1.3
x2 = 0.3008	846.349 ± 2	1288.2 ± 1.4
x2 = 0.3386	851.673 ± 2.1	1298 ± 1.4
x2 = 0.3915	859.222 ± 2.1	1311.8 ± 1.4
x2 = 0.4887	873.095 ± 2.1	1337.4 ± 1.4
x2 = 0.5514	–	1354.1 ± 1.4
x2 = 0.6017	–	1367.5 ± 1.4
x2 = 0.6519	–	1381.2 ± 1.4
x2 = 0.7023	–	1394.9 ± 1.5
x2 = 0.7525	–	1408.8 ± 1.5
x2 = 0.8002	–	1421.7 ± 1.5
x2 = 0.8492	–	1435.2 ± 1.5
x2 = 0.9032	–	1450.2 ± 1.5
x2 = 0.9477	–	1462.4 ± 1.5
